# PMC7956819, “Peptides from the Intestinal Tract of Breast Milk-Fed Infants Have Antimicrobial and Bifidogenic Activity” (International Journal of Molecular Sciences, 2021)
# “Also recorded” adds a separate entry of the source. Peptide text beside a SMILES is read from it.
# Test system: not given
# Conditions: function listed in the MBPDB for the identical sequence; not tested here; cited from earlier work
# Text: page 3: Ta ble S1. List of known bioactive peptides in the infant intestinal samples.
row,Compound,Function (known bioactive peptides in the infant intestinal samples)
1,AASDISLLDAQSAPLR,Antimicrobial
2,ALKALPMHIR,Cell-proliferative
3,ALNEINQFYQK,ACE-inhibitory
4,ALPMHIR,ACE-inhibitory; also recorded: Cell-proliferative
5,AMKPWIQPK,ACE-inhib itory
6,DAQSAPLRVY,ACE-inhibitory
7,DKIYPSFQPQPLIYP,ACE-inhibitory
8,ENLHLPLP,ACE-inhibitory
9,ENLHLPLPLL,ACE-inhibitory
10,EPVLGPVRGPFP,ACE-inhibitory
11,FALPQYLK,ACE-inhibitory; also recorded: Antioxidant
12,FFVAPFPEVFGK,ACE-inhib itory
13,FPEVFGK,ACE-inhib itory
14,FQPQPLIYP,ACE-inhibitory
15,FSDKIAK,ACE-inhibitory; also recorded: Antimicrobial
16,FVAPFPEVFG,ACE-inhib itory
17,GLDIQKVAGT,Antimicrobial
18,HPHPHLSF,ACE-inhibitory
19,IGSENSEKTTMP,ACE-inhib itory
20,IIAEKTKIPAVF,Antimicrobial
21,IKHQGLPQEV,Antimicrobial
22,INNQFLPYPY,DPP-I V-inhibitory
23,IQKVAGTW,ACE-inhibitory; also recorded: DPP-IV-inhibitory
24,IQPKTKVIPYVR,Antimicrobial

row,Compound,Function (known bioactive peptides in the infant intestinal samples)
1,IYPSFQPQPLIYP,ACE-inhibitory
2,LDIQKVAGTW,ACE-inhibitory
3,LENLHLPLP,ACE-inhibitory
4,LIVTQTMK,Cytotoxic
5,LKALPMH,ACE-inhibitory; also recorded: DPP-IV-inhibitory
6,LKPTPEGDL,DPP-IV-inhibitory
7,LKPTPEGDLE,DPP-IV-inhibitory
8,LLNQELLLNPTHQIYPV,Antimicrobial
9,LLYQEPVLGPVRGPFPIIV,ACE-inhibitory
10,LPQNIPPLT,DPP-IV-inhibitory
11,LRLKKYKVPQL,Antimicrobial
12,LTDLENLHLP,ACE-inhibitory
13,LVYPFPGPI,ACE-inhibitory
14,LYQEPVLGPVRGPFPIIV,Immunomodulatory
15,MAIPPKKNQDKTEIPTINT,Antimicrobial
16,MPFPKYPVEP,ACE-inhibitory
17,NLHLPLP,ACE-inhibitory
18,NLHLPLPLL,ACE-inhibitory
19,PVVVPPFLQPE,Antimicrobial
20,PYVRYL,ACE-inhibitory; also recorded: Antimicrobial; also recorded: Antioxidant
21,QELLLNPTHQIYPVTQPLAPVHNPISV,Antimicrobial
22,QEPVLGPVRGPFPIIV,ACE-inhibitory
23,QVVPYPQ,Antioxidant
24,RELEELNVPGEIVESLSSSEESITR,Caseinophosphopeptide; also recorded: Immunomodulatory

row,Compound,Function (known bioactive peptides in the infant intestinal samples)
1,RETIESLSSSEESITEYK,Cell-proliferative
2,SDIPNPIGSENSEK,Antimicrobial
3,SPTIPFFDPQIPK,Cell-proliferative
4,TEDELQDKIHPF,Antimicrobial
5,TKKTKLTEEEKNRL,Antimicrobial
6,TKVIPYVRYL,Antimicrobial
7,TPEVDDEALEK,Antimicrobial; also recorded: DPP-IV-inhibitory
8,TVYTKGRVMP,ACE-inhibitory
9,VENLHLPLPLL,ACE-inhibitory
10,VKEAMAPK,Antimicrobial; also recorded: Antioxidant
11,VLGPVRGPFP,ACE-inhibitory
12,VLPVPQKAVPYPQR,Antimicrobial
13,VLVLDTDYK,Antimicrobial; also recorded: DPP-IV-inhibitory
14,VYPFPGPI,PEP-inhibitory
15,VYPFPGPIPN,ACE-inhibitory; also recorded: Antioxidant
16,VYVEELKPTPEGDLEILLQK,Hypocholesterolemic
17,WSVPQPK,ACE-inhibitory; also recorded: Antioxidant
18,YANPAVVRP,ACE-inhibitory
19,YLGYLEQLLR,Anxiolytic
20,YQEPVLGPVR,ACE-inhibitory; also recorded: Immunomodulatory
21,YQEPVLGPVRGPFPI,Antimicrobial
22,YQEPVLGPVRGPFPIIV,ACE-inhibitory; also recorded: Antimicrobial; also recorded: Antithrombin; also recorded: Immunomodulatory
23,YQKFPQY,ACE-inhibitory; also recorded: Antioxidant

# Test system: Bifidobacterium longum spp. infantis ATCC 15697
# Type: cell-based
# Conditions: ATCC 15697, 18 h
# Protocol: (§1) The bioactivity of the intestinal peptide extracts was determined via the microdilution method. Antimicrobial activity was screened with E. coli and S. aureus as representatives of common infant pathogens responsible for infectious disease, and growth-promoting activity was screened with B. infantis, one of the ideal colonizers of the infant gut. For the antimicrobial assays, colonies of bacteria were selected and inoculated in 2 mL of MHB and incubated at 37 °C for 24 h. The inoculum was diluted to 2 × 10^5 CFU/mL with MHB. For the growth-promoting assays, 100 µL of stock bacteria were inoculated in 10 mL of reinforced clostridial broth supplemented with 0.1% ascorbic acid and incubated under anaerobic conditions (BD BBL™ GasPak™) at 37 °C for 24 h. Optical density was measured at 600 nm, and the inoculum was diluted to an optical density of 0.05 with reinforced clostridial broth.
# (§2) The intestinal peptide extracts were serially diluted with PBS to concentrations of 1×, 1/2×, 1/4×, 1/8×, 1/16×, 1/32×, 1/64×, and 1/128×. In a 96-well plate, 50 µL of each dilution was incubated with 50 µL of inoculum in duplicate, along with a negative control of 50 µL of inoculum with 50 µL of pure PBS and a sterility test of 50 µL of peptide with 50 µL of broth. Growth was determined by optical density readings at 600 nm (OD600) taken at 0 h (T0) and 18 h (T18). The following equation was used to determine percent inhibition or promotion of bacterial growth:
# (§3) Candidate peptides were synthesized and dissolved in sterile nanopure water. Antimicrobial and growth-promoting assays were carried out as described above with serial dilutions ranging from […] to 15.6 μg/mL. Minimum inhibitory concentration (MIC) was determined by the concentration at which all visible growth was inhibited.
row,Compound,B. infantis MIC [µg/mL]
1,CC[C@H](C)[C@H](NC(=O)[C@@H]1CCCN1C(=O)[C@H](CCC(N)=O)NC(=O)[C@@H]1CCCN1C(=O)[C@@H](NC(=O)[C@H](CCC(N)=O)NC(=O)[C@H](CCC(N)=O)NC(=O)[C@H](CCSC)NC(=O)[C@H](CC(C)C)NC(=O)[C@@H]1CCCN1C(=O)[C@H](CCC(N)=O)NC(=O)[C@H](CC(C)C)NC(=O)[C@H](CC(C)C)NC(=O)[C@@H]1CCCN1C(=O)[C@H](CC(C)C)NC(=O)[C@@H]1CCCN1C(=O)[C@H](CC(C)C)NC(=O)[C@@H](N)Cc1c[nH]cn1)C(C)C)C(=O)O [Peptide 1] (H-HLPLPLLQPLMQQVPQPI-OH),>3000
2,CC[C@H](C)[C@H](NC(=O)[C@H](CCC(N)=O)NC(=O)[C@H](Cc1c[nH]cn1)NC(=O)[C@@H](NC(=O)[C@@H]1CCCN1C(=O)[C@H](CC(N)=O)NC(=O)[C@H](CC(C)C)NC(=O)[C@@H](N)CC(C)C)[C@@H](C)O)C(=O)N[C@@H](Cc1ccc(O)cc1)C(=O)N1CCC[C@H]1C(=O)N[C@H](C(=O)N[C@H](C(=O)N[C@@H](CCC(N)=O)C(=O)N1CCC[C@H]1C(=O)N[C@@H](CC(C)C)C(=O)N[C@@H](C)C(=O)N1CCC[C@H]1C(=O)N[C@H](C(=O)N[C@@H](Cc1c[nH]cn1)C(=O)N[C@@H](CC(N)=O)C(=O)N1CCC[C@H]1C(=O)N[C@H](C(=O)N[C@@H](CO)C(=O)O)[C@@H](C)CC)C(C)C)[C@@H](C)O)C(C)C [Peptide 2] (H-LLNPTHQIYPVTQPLAPVHNPIS-OH),>3000
3,CC[C@H](C)[C@H](NC(=O)[C@H](CCC(N)=O)NC(=O)[C@@H](N)Cc1c[nH]cn1)C(=O)N[C@@H](Cc1ccc(O)cc1)C(=O)N1CCC[C@H]1C(=O)N[C@H](C(=O)N[C@H](C(=O)N[C@@H](CCC(N)=O)C(=O)N1CCC[C@H]1C(=O)N[C@@H](CC(C)C)C(=O)O)[C@@H](C)O)C(C)C [Peptide 3] (H-HQIYPVTQPL-OH; N-terminus and C-terminus assumed),>3000
4,CC[C@H](C)[C@H](NC(=O)[C@@H]1CCCN1C(=O)[C@H](CC(N)=O)NC(=O)[C@H](Cc1c[nH]cn1)NC(=O)[C@@H](NC(=O)[C@@H]1CCCN1C(=O)[C@H](C)NC(=O)[C@@H](N)CC(C)C)C(C)C)C(=O)O [Peptide 4] (H-LAPVHNPI-OH),>3000

# Test system: Escherichia coli BL21 (DE3)
# Type: cell-based
# Conditions: BL21, 18 h
# Protocol: as §1, §2, §3
row,Compound,E. coli MIC [µg/mL]
1,CC[C@H](C)[C@H](NC(=O)[C@@H]1CCCN1C(=O)[C@H](CCC(N)=O)NC(=O)[C@@H]1CCCN1C(=O)[C@@H](NC(=O)[C@H](CCC(N)=O)NC(=O)[C@H](CCC(N)=O)NC(=O)[C@H](CCSC)NC(=O)[C@H](CC(C)C)NC(=O)[C@@H]1CCCN1C(=O)[C@H](CCC(N)=O)NC(=O)[C@H](CC(C)C)NC(=O)[C@H](CC(C)C)NC(=O)[C@@H]1CCCN1C(=O)[C@H](CC(C)C)NC(=O)[C@@H]1CCCN1C(=O)[C@H](CC(C)C)NC(=O)[C@@H](N)Cc1c[nH]cn1)C(C)C)C(=O)O [Peptide 1] (H-HLPLPLLQPLMQQVPQPI-OH),>3000
2,CC[C@H](C)[C@H](NC(=O)[C@H](CCC(N)=O)NC(=O)[C@H](Cc1c[nH]cn1)NC(=O)[C@@H](NC(=O)[C@@H]1CCCN1C(=O)[C@H](CC(N)=O)NC(=O)[C@H](CC(C)C)NC(=O)[C@@H](N)CC(C)C)[C@@H](C)O)C(=O)N[C@@H](Cc1ccc(O)cc1)C(=O)N1CCC[C@H]1C(=O)N[C@H](C(=O)N[C@H](C(=O)N[C@@H](CCC(N)=O)C(=O)N1CCC[C@H]1C(=O)N[C@@H](CC(C)C)C(=O)N[C@@H](C)C(=O)N1CCC[C@H]1C(=O)N[C@H](C(=O)N[C@@H](Cc1c[nH]cn1)C(=O)N[C@@H](CC(N)=O)C(=O)N1CCC[C@H]1C(=O)N[C@H](C(=O)N[C@@H](CO)C(=O)O)[C@@H](C)CC)C(C)C)[C@@H](C)O)C(C)C [Peptide 2] (H-LLNPTHQIYPVTQPLAPVHNPIS-OH),>3000
3,CC[C@H](C)[C@H](NC(=O)[C@H](CCC(N)=O)NC(=O)[C@@H](N)Cc1c[nH]cn1)C(=O)N[C@@H](Cc1ccc(O)cc1)C(=O)N1CCC[C@H]1C(=O)N[C@H](C(=O)N[C@H](C(=O)N[C@@H](CCC(N)=O)C(=O)N1CCC[C@H]1C(=O)N[C@@H](CC(C)C)C(=O)O)[C@@H](C)O)C(C)C [Peptide 3] (H-HQIYPVTQPL-OH; N-terminus and C-terminus assumed),>3000
4,CC[C@H](C)[C@H](NC(=O)[C@@H]1CCCN1C(=O)[C@H](CC(N)=O)NC(=O)[C@H](Cc1c[nH]cn1)NC(=O)[C@@H](NC(=O)[C@@H]1CCCN1C(=O)[C@H](C)NC(=O)[C@@H](N)CC(C)C)C(C)C)C(=O)O [Peptide 4] (H-LAPVHNPI-OH),3000

# Test system: Staphylococcus aureus ATCC 12600
# Type: cell-based
# Conditions: ATCC 12600, 18 h
# Protocol: as §1, §2, §3
row,Compound,S. aureus MIC [µg/mL]
1,CC[C@H](C)[C@H](NC(=O)[C@@H]1CCCN1C(=O)[C@H](CCC(N)=O)NC(=O)[C@@H]1CCCN1C(=O)[C@@H](NC(=O)[C@H](CCC(N)=O)NC(=O)[C@H](CCC(N)=O)NC(=O)[C@H](CCSC)NC(=O)[C@H](CC(C)C)NC(=O)[C@@H]1CCCN1C(=O)[C@H](CCC(N)=O)NC(=O)[C@H](CC(C)C)NC(=O)[C@H](CC(C)C)NC(=O)[C@@H]1CCCN1C(=O)[C@H](CC(C)C)NC(=O)[C@@H]1CCCN1C(=O)[C@H](CC(C)C)NC(=O)[C@@H](N)Cc1c[nH]cn1)C(C)C)C(=O)O [Peptide 1] (H-HLPLPLLQPLMQQVPQPI-OH),>3000
2,CC[C@H](C)[C@H](NC(=O)[C@H](CCC(N)=O)NC(=O)[C@H](Cc1c[nH]cn1)NC(=O)[C@@H](NC(=O)[C@@H]1CCCN1C(=O)[C@H](CC(N)=O)NC(=O)[C@H](CC(C)C)NC(=O)[C@@H](N)CC(C)C)[C@@H](C)O)C(=O)N[C@@H](Cc1ccc(O)cc1)C(=O)N1CCC[C@H]1C(=O)N[C@H](C(=O)N[C@H](C(=O)N[C@@H](CCC(N)=O)C(=O)N1CCC[C@H]1C(=O)N[C@@H](CC(C)C)C(=O)N[C@@H](C)C(=O)N1CCC[C@H]1C(=O)N[C@H](C(=O)N[C@@H](Cc1c[nH]cn1)C(=O)N[C@@H](CC(N)=O)C(=O)N1CCC[C@H]1C(=O)N[C@H](C(=O)N[C@@H](CO)C(=O)O)[C@@H](C)CC)C(C)C)[C@@H](C)O)C(C)C [Peptide 2] (H-LLNPTHQIYPVTQPLAPVHNPIS-OH),>3000
3,CC[C@H](C)[C@H](NC(=O)[C@H](CCC(N)=O)NC(=O)[C@@H](N)Cc1c[nH]cn1)C(=O)N[C@@H](Cc1ccc(O)cc1)C(=O)N1CCC[C@H]1C(=O)N[C@H](C(=O)N[C@H](C(=O)N[C@@H](CCC(N)=O)C(=O)N1CCC[C@H]1C(=O)N[C@@H](CC(C)C)C(=O)O)[C@@H](C)O)C(C)C [Peptide 3] (H-HQIYPVTQPL-OH; N-terminus and C-terminus assumed),>3000
4,CC[C@H](C)[C@H](NC(=O)[C@@H]1CCCN1C(=O)[C@H](CC(N)=O)NC(=O)[C@H](Cc1c[nH]cn1)NC(=O)[C@@H](NC(=O)[C@@H]1CCCN1C(=O)[C@H](C)NC(=O)[C@@H](N)CC(C)C)C(C)C)C(=O)O [Peptide 4] (H-LAPVHNPI-OH),3000
